Test results as given in patent US11066425B1, “Oxo-substituted compound” (SUMITOMO DAINIPPON PHARMA CO., LTD., priority 2018, dated 2021).
Structures can show the parent of a compound that is named as a salt.

Test system: β-lactamase producing bacteria
Test: Test Example 1: MIC of meropenem (MEPM) combined with test compound at fixed 4 μg/mL, broth microdilution
Assay type: cell-based
Settings: relative to MEPM alone
Description: Test Example 1: Evaluation of Minimum Inhibitory Concentration (MIC) of MEPM Against β-Lactamase Producing Bacteria
To evaluate the β-lactamase inhibitory activity of test compounds, the effect of combination of a test compound and a β-lactam agent against β-lactamase producing bacteria was evaluated. Meropenem (MEPM) was used as a β-lactam antimicrobial agent. The minimum inhibitory concentration (MIC) of MEPM against β-lactamase producing bacteria when a test compound was added at a fixed concentration (4 μg/mL) was measured by broth microdilution method (common ratio: 2). MIC of MEPM decreasing to less than 1/32 in combination with a test compound is indicated by A, decreasing from 1/32 to 1/16 is indicated by B, decreasing from ⅛ to ¼ is indicated by C, and decreasing to ½ or others are indicated by D. “-” represents untested cases.

CC(=O)N1CC(Oc2ccc3c(c2C(=O)O)OB(O)CC3)C1 [Example 1, 7-[(1-acetylazetidin-3-yl)oxy]-2-hydroxy-3,4-dihydro-2H-1,2-benzoxaborinine-8-carboxylic Acid]
Decrease of MIC of MEPM in combination with a test compound, E. coli ATCC BAA-2340 (KPC): A (MIC of MEPM decreasing to less than 1/32 in combination with a test compound is indicated by A) | Decrease of MIC of MEPM in combination with a test compound, K. pneumoniae ATCC BAA-2344 (KPC): A (MIC of MEPM decreasing to less than 1/32 in combination with a test compound is indicated by A) | Decrease of MIC of MEPM in combination with a test compound, K. pneumoniae ATCC BAA-2524 (OXA-48): B (decreasing from 1/32 to 1/16 is indicated by B)

O=C(O)c1c(OC2CN(C(=O)Cc3cnc[nH]3)C2)ccc2c1OB(O)CC2 [Example 2, 2-hydroxy-7-({1-[(1H-imidazol-5-yl)acetyl]azetidin-3-yl}oxy)-3,4-dihydro-2H-1,2-benzoxaborinine-8-carboxylic Acid Hydrochloride]
Decrease of MIC of MEPM in combination with a test compound, E. coli ATCC BAA-2340 (KPC): A (MIC of MEPM decreasing to less than 1/32 in combination with a test compound is indicated by A) | Decrease of MIC of MEPM in combination with a test compound, K. pneumoniae ATCC BAA-2344 (KPC): A (MIC of MEPM decreasing to less than 1/32 in combination with a test compound is indicated by A) | Decrease of MIC of MEPM in combination with a test compound, K. pneumoniae ATCC BAA-2524 (OXA-48): B (decreasing from 1/32 to 1/16 is indicated by B)

CS(=O)(=O)N1CC(Oc2ccc3c(c2C(=O)O)OB(O)CC3)C1 [Example 3, 2-hydroxy-7-{[1-(methanesulfonyl)azetidin-3-yl]oxy}-3,4-dihydro-2H-1,2-benzoxaborinine-8-carboxylic]
Decrease of MIC of MEPM in combination with a test compound, E. coli ATCC BAA-2340 (KPC): A (MIC of MEPM decreasing to less than 1/32 in combination with a test compound is indicated by A) | Decrease of MIC of MEPM in combination with a test compound, K. pneumoniae ATCC BAA-2344 (KPC): A (MIC of MEPM decreasing to less than 1/32 in combination with a test compound is indicated by A) | Decrease of MIC of MEPM in combination with a test compound, K. pneumoniae ATCC BAA-2524 (OXA-48): B (decreasing from 1/32 to 1/16 is indicated by B)

N[C@@H](C(=O)N1CC(Oc2ccc3c(c2C(=O)O)O[B-](O)(O)CC3)C1)c1ccc(O)cc1 [Example 4, 8-({1-[(2R)-2-amino-2-(4-hydroxyphenyl)acetyl]azetidin-3-yl}oxy)-4,4-dihydroxy-5-oxa-4-boranuidabicyclo[4.4.0]deca-l(6),7,9-triene-7-carboxylic Acid Disodium Salt]
Decrease of MIC of MEPM in combination with a test compound, E. coli ATCC BAA-2340 (KPC): A (MIC of MEPM decreasing to less than 1/32 in combination with a test compound is indicated by A) | Decrease of MIC of MEPM in combination with a test compound, K. pneumoniae ATCC BAA-2344 (KPC): A (MIC of MEPM decreasing to less than 1/32 in combination with a test compound is indicated by A) | Decrease of MIC of MEPM in combination with a test compound, K. pneumoniae ATCC BAA-2524 (OXA-48): A (MIC of MEPM decreasing to less than 1/32 in combination with a test compound is indicated by A)

CON=C(C(=O)N1CC(Oc2ccc3c(c2C(=O)O)OB(O)CC3)C1)c1csc(N)n1 [Example 5, 7-({1-[(2-amino-1,3-thiazol-4-yl)(methoxyimino)acetyl]azetidin-3-yl}oxy)-2-hydroxy-3,4-dihydro-2H-1,2-benzoxaborinine-8-carboxylic acid]
Decrease of MIC of MEPM in combination with a test compound, E. coli ATCC BAA-2340 (KPC): A (MIC of MEPM decreasing to less than 1/32 in combination with a test compound is indicated by A) | Decrease of MIC of MEPM in combination with a test compound, K. pneumoniae ATCC BAA-2344 (KPC): B (decreasing from 1/32 to 1/16 is indicated by B) | Decrease of MIC of MEPM in combination with a test compound, K. pneumoniae ATCC BAA-2524 (OXA-48): C (decreasing from ⅛ to ¼ is indicated by C)
